Source: US20220241236A1, “DIETARY BUTYRATE AND ITS USES” (SOCIETE DES PRODUITS NESTLE S.A., priority 2019, published 2022)
Entries after “also recorded” stand apart in the source; their conditions may differ.

Legend:
[1] = tested on: rabbit gastric lipase (RGL) followed by porcine pancreatic lipase (PPL); test: Sequential in vitro digestion SGF (RGL) followed by SIF (PPL), pH-stat; assay type: in vitro ADME
[2] = target: T1, porcine pancreatic lipase (from pancreatin) (Sus scrofa, UniProt P00591); test: In vitro lipolysis in simulated intestinal fluid (SIF model), pH-stat; assay type: in vitro ADME; details: SIF alone; emulsion with 200 mg fat; pH 6.8, 37° C.
T1 construct: pancreatin (Porcine, USP×8, P7585); purchased Sigma-Aldrich P7585; host or cells: porcine pancreas extract (pancreatin)
T1 sequence (P00591 1-450): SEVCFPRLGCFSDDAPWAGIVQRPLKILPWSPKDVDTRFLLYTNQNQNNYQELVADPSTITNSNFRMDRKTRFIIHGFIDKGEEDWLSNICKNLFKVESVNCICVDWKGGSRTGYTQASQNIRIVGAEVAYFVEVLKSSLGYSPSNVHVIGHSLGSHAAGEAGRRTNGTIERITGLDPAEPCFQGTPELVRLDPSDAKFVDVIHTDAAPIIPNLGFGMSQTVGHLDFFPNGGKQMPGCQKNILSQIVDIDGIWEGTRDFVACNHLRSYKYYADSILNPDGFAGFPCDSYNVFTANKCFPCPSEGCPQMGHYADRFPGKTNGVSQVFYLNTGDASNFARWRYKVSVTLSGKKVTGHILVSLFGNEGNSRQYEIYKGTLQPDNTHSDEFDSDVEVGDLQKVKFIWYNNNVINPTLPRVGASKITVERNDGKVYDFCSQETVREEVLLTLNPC
T1 sequence (P02703 23-112 partner): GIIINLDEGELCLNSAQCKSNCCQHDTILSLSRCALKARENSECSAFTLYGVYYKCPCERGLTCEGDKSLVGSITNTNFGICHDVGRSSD

initial lipolysis rate in SIF ([1]; SGF-SIF sequential digestion (after pre-exposure to RGL)): 44.1 ± 8.8 µmol/min
lipolysis by gastric lipase ([1]; indicated by decreased total fatty acid release in SIF after RGL pre-exposure): ~60%
initial rate of lipolysis [2]: 223 ± 59 µmol/min
Structure (SMILES): CCCC(=O)OCC(COC(=O)CCC)OC(=O)CCC [tributyrin]
extent of gastric lipolysis / hydrolysis in the stomach ([1]; gastric compartment of the model): considerable digestion; also recorded: extensive hydrolysis in the stomach
